In patent publication US20230159510A1, “NOVEL PRMT5 INHIBITORS” (AMGEN INC., priority 2020, published 2023):

How the values were obtained:
[1] = biological target: PRMT5/MEP50 (Homo sapiens, UniProt O14744); assay: MTase-Glo methyl transferase assay, Method B (FL-Histone H2A, 1 µM MTA, 1 h pre-incubation); format: biochemical; parameters: purchased Reaction Biology Corp RD-11-292; conditions: read-out: PRMT5 MTase Glo Ki (nM, Meth. B)
Procedure: Method B: The PRMT5 inhibitory activity of test compounds was determined using the MTase-Glo™ assay (Promega), which monitors the product (S-adenosyl homocysteine or SAH) of methyltransferase reactions. The PRMT5 MTase-Glo assay was conducted in a 384-well white ProxiPlate (PerkinElmer) in a total volume of 16 µL. The PRMT5 enzymatic reaction (in 8 µL) contained 4 nM PRMT5/MEP50 (Reaction Biology Corp, catalog no.: RD-11-292), 5 µM S-adenosyl methionine (SAM, Promega), 2.5 µM FL-Histone H2A (BPS Bioscience, catalog no.: 52021), 1 µM 5′-methylthioadenosine (MTA, Sigma) and ½ log serially diluted compounds in a reaction buffer of 50 mM Tris (pH 8.0), 50 mM NaCl, 0.01% Tween 20, 0.01% BSA, and 1 mM TCEP. Test compounds were pre-incubated with PRMT5/MEP50, SAM, and MTA for 1 hour before addition of FL-Histone H2A to initiate the PRMT5 reaction. The reaction was allowed to proceed for 20 hours at room temperature and was then terminated by addition of 1 µL of 9X MTase-Glo™ Reagent (Promega). After a 30-minute incubation at room temperature, 8 µL of MTase-Glo™ Detection Solution (Promega) was added and the plate was incubated at room temperature for an additional 30 minutes. The light signal corresponding to the amount of SAH produced by the PRMT5 reaction was subsequently measured using an Envision multimode reader (PerkinElmer). IC50 and KI values were obtained by analyzing dose-response curves using GraphPad Prism®.

[2] = system: HCT116 MTAP null cells; assay: HCT116 proliferation assay, MTAP null cells (CellTiter-Glo, 6 days); format: cell-based; conditions: HCT116-MTAP null, 144 h, read-out: Protif_ HCT116-MTAP null IC50
In short: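 Cells were plated in RPMI 1640 with 10% fetal bovine serum and left overnight at 37° C and 5% CO2. Compound was then added as an 8- or 9-point 1:3 dilution series from a top concentration of 1 or 10 µM, alongside a DMSO-only control. Viability was read by luminescence.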

PRMT5/MEP50, sequence (O14744 2-637 limits assumed): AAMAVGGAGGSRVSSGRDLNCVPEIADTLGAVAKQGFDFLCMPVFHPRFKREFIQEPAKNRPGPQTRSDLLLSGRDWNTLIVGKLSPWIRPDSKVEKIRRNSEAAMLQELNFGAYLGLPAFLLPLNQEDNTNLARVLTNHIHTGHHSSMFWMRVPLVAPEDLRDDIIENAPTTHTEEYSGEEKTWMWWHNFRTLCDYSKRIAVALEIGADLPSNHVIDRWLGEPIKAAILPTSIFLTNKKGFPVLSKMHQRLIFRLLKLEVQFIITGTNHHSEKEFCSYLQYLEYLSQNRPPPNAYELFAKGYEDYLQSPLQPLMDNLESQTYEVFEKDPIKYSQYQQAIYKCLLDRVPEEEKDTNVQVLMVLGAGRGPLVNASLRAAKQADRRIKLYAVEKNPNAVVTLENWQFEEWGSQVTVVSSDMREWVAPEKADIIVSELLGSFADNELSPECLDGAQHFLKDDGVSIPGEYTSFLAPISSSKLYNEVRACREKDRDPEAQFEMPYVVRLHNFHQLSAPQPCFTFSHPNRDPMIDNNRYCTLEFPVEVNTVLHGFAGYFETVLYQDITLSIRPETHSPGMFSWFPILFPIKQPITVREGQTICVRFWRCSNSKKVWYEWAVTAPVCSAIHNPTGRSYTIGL
PRMT5/MEP50, sequence (Q9BQA1 2-342 partner limits assumed): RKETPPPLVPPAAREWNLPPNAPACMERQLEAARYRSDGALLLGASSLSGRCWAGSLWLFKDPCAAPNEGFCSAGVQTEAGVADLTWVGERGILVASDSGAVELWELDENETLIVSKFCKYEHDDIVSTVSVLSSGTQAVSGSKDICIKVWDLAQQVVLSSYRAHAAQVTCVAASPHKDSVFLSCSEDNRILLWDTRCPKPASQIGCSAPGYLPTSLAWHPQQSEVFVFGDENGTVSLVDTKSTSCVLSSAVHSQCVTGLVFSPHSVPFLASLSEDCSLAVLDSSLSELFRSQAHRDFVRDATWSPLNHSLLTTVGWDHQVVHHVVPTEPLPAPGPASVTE

Row | Ki [1] [nM] | IC50 [2] [nM] | SMILES
1 | 6.83 | 850 | Cc1cc2cc(C(=O)N(Cc3ccc(N4CCCC4)cc3)Cc3ccc(C(F)(F)F)cn3)ccc2nc1N [Example 646, 2-amino-3-methyl-N-[(4-pyrrolidin-1-ylphenyl)methyl]-N-[[5-(trifluoromethyl)-2-pyridyl]methyl] quinoline-6-carboxamide]
2 | 4.11 | 320 | Cc1cc2cc(C(=O)N(Cc3ccc(-c4cc[nH]n4)cc3)Cc3ccc(C(F)(F)F)cn3)ccc2nc1N [Example 647, 2-amino-3-methyl-N-[[4-(IH-pyrazol-3-yl)phenyl]methyl]-N-[[5-(trifluoromethyl)-2-pyridyl]methyl] quinoline-6-carboxamide]
3 | 1.68 | 180 | Cc1cc2cc(C(=O)N(Cc3cccc(-n4ccnc4)c3)Cc3ccc(C(F)(F)F)cn3)ccc2nc1N [Example 648, 2-amino-N-[(3-imidazol-1-ylphenyl)methyl]-3-methyl-N-[[5-(trifluoromethyl)-2-pyridyl]methyl] quinoline-6-carboxamide]
4 | 2.69 | 310 | Cc1cc2cc(C(=O)N(Cc3cccc(-n4cncn4)c3)Cc3ccc(C(F)(F)F)cn3)ccc2nc1N [Example 649, 2-amino-3-methyl-N-[[3-(1,2,4-triazol-1-yl)phenyl]methyl]-N-[[5-(trifluoromethyl)-2-pyridyl]methyl] quinoline-6-carboxamide]
5 | 2.21 | 370 | Cc1cc2cc(C(=O)N(Cc3cccc(-c4ncc[nH]4)c3)Cc3ccc(C(F)(F)F)cn3)ccc2nc1N [Example 650, 2-amino-N-[ [3-(1 H-imidazol-2-yl)phenyl]methyl] -3-methyl-N-[ [5-(trifluoromethyl)-2-pyridyl]methyl] quinoline-6-carboxamide]
6 | 3 to 9 | 310 | Cc1cc2cc(C(=O)N(Cc3cccc(-n4ccnn4)c3)Cc3ccc(C(F)(F)F)cn3)ccc2nc1N [Example 651, 2-amino-3-methyl-N-[[3-(triazol-1-yl)phenyl]methyl] -N-[ [5-(trifluoromethyl)-2-pyridyl]methyl] quinoline-6-carboxamide]
7 | 3 to 7 | 160 | Cc1cc2cc(C(=O)N(Cc3ccc(C(F)(F)F)cn3)Cc3cccnc3-n3cncn3)ccc2nc1N [Example 652, 2-amino-3-methyl-N-[[2-(1,2,4-triazol-1-yl)-3-pyridyl]methyl]-N-[[5-(trifluoromethyl)-2-pyridyl]methyl] quinoline-6-carboxamide]
8 | 2.79 | 280 | Cc1cc2cc(C(=O)N(Cc3ccc(C(F)(F)F)cn3)Cc3ccccc3-n3ccnc3)ccc2nc1N [Example 653, 2-amino-N-[(2-imidazol-1-ylphenyl)methyl]-3-methyl-N-[[5-(trifluoromethyl)-2-pyridyl]methyl] quinoline-6-carboxamide]
9 | 5.61 | 250 | Cc1cc2cc(C(=O)N(Cc3ccc(C(F)(F)F)cn3)Cc3ccccc3-n3cccn3)ccc2nc1N [Example 654, 2-amino-3-methyl-N-[(2-pyrazol-1-ylphenyl)methyl]-N-[[5-(trifluoromethyl)-2-pyridyl]methyl] quinoline-6-carboxamide]
10 | 1.81 | 69 | Cc1cc2cc(C(=O)N(Cc3ccc(O)cc3)Cc3ccc(C(F)(F)F)cn3)ccc2nc1N [Example 661, 2-amino-N-[(4-hydroxyphenyl)methyl]-3-methyl-N-[[5-(trifluoromethyl)-2-pyridyl]methyl] quinoline-6-carboxamide]
11 | 3.58 | 180 | Cc1cc2cc(C(=O)N(Cc3ccc(O)c(F)c3)Cc3ccc(C(F)(F)F)cn3)ccc2nc1N [Example 662, 2-amino-N-[(3-fluoro-4-hydroxyphenyl)methyl] -3-methyl-N-[ [5-(trifluoromethyl)-2-pyridyl]methyl] quinoline-6-carboxamide]

The next lines start with the compound.

Row | SMILES | Ki [1] [nM] | IC50 [2] [nM]
12 | Cc1cc2cc(C(=O)N(Cc3ccc(N4CCCC4=O)cc3)Cc3ccc(C(F)(F)F)cn3)ccc2nc1N [Example 645, 2-amino-3-methyl-N-[[4-(2-oxopyrrolidin-1-yl)phenyl]methyl] -N-[[5-(trifluoromethyl)-2-pyridyl]methyl] quinoline-6-carboxamide] | 5.93 | > 1000
13 | C#CCN(Cc1ccc(C(F)(F)F)cn1)C(=O)c1ccc2nc(N)c(C)cc2c1 [Example 655, 2-amino-3-methyl-N-prop-2-ynyl-N-[[5-(trifluoromethyl)-2-pyridyl]methyl] quinoline-6-carboxamide] | 4 to 9 | 550
14 | C#CC(C)N(Cc1ccc(C(F)(F)F)cn1)C(=O)c1ccc2nc(N)c(C)cc2c1 (centres unmarked) [Example 656, 2-amino-3-methyl-N-(1-methylprop-2-ynyl)-N-[[5-(trifluoromethyl)-2-pyridyl]methyl] quinoline-6-carboxamide] | 5.28 | 210
15 | CC#CCN(Cc1ccc(C(F)(F)F)cn1)C(=O)c1ccc2nc(N)c(C)cc2c1 [Example 657, 2-amino-N-but-2-ynyl-3-methyl-N-[[5-(trifluoromethyl)-2-pyridyl]methyl] quinoline-6-carboxamide] | 5.34 | 620
16 | C#CCCN(Cc1ccc(C(F)(F)F)cn1)C(=O)c1ccc2nc(N)c(C)cc2c1 [Example 659, 2-amino-N-but-3-ynyl-3-methyl-N-[[5-(trifluoromethyl)-2-pyridyl]methyl] quinoline-6-carboxamide] | 4.33 | 251
17 | Cc1cc2cc(C(=O)N(Cc3ccc(C(O)C(F)(F)F)cc3)Cc3ccc(C(F)(F)F)cn3)ccc2nc1N (centres unmarked) [Example 660, 2-amino-3-methyl-N-[ [4-(2,2,2-trifluoro-1-hydroxyethyl)phenyl]methyl]-N-[[5-(trifluoromethyl)-2-pyridyl]methyl] quinoline-6-carboxamide] | 7.14 | 800
18 | Cc1cc2cc(C(=O)N(Cc3ccc(C(F)(F)F)cn3)C(C)c3cccc(O)c3)ccc2nc1N (centres unmarked) [Example 663, 2-amino-N-[1-(3-hydroxyphenyl)ethyl] -3-methyl-N-[[5-(trifluoromethyl)-2-pyridyl]methyl] quinoline-6-carboxamide] | 1.7 | 37
19 | Cc1cc2cc(C(=O)N(Cc3ccc(C(F)(F)F)cn3)C(C)c3cc[nH]c(=O)c3)ccc2nc1N (centres unmarked) [Example 664, 2-amino-3-methyl-N-[1-(2-oxo-1H-pyridin-4-yl)ethyl]-N-[[5-(trifluoromethyl)-2-pyridyl]methyl] quinoline-6-carboxamide] | 9.1 | 670
20 | Cc1cc2cc(C(=O)N(Cc3cc(Br)ccn3)CC(C)C)ccc2nc1N [Example 665, 2-amino-N-[(4-bromo-2-pyridyl)methyl]-N-isobutyl-3-methylquinoline-6-carboxamide] | 9.17 | 680
21 | COc1ccnc2c1CCCC2N(Cc1ccc(C(F)(F)F)cn1)C(=O)c1ccc2nc(N)c(C)cc2c1 (centres unmarked) [Example 666, 2-amino-N-(4-methoxy-5,6,7,8-tetrahydroquinolin-8-yl)-3-methyl-N-[[5-(trifluoromethyl)-2-pyridyl]methyl] quinoline-6-carboxamide] | 3.93 | 41
22 | Cc1cc2cc(C(=O)N(Cc3ccc(C(F)(F)F)cn3)C3CCCc4ncccc43)ccc2nc1N (centres unmarked) [Example 667, 2-amino-3-methyl-N-(5,6,7,8-tetrahydroquinolin-5-yl)-N-[[5-(trifluoromethyl)-2-pyridyl]methyl] quinoline-6-carboxamide] | 3.9 | 24
